In paper PMC3319098 (Journal of the American Chemical Society, 2012):

What was measured:
[1] = target: T1, bovine carbonic anhydrase (BCA) (Bos taurus, UniProt P00921); settings: resin-bound control ligand; cited from earlier work
[2] = target: T1, bovine carbonic anhydrase (BCA); test: MagLev measurement of BCA binding to ligand-functionalized PEGA beads; settings: incubation with 0.33 mM BCA for 7 days; standard levitation buffer

T1 sequence (P00921 whole entry): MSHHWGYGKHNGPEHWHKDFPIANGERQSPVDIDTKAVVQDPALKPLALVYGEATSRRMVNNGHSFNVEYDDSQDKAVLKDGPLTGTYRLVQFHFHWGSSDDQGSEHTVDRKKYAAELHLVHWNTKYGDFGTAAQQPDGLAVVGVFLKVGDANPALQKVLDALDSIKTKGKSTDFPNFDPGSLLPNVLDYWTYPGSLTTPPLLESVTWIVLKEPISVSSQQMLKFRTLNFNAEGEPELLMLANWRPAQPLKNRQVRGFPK

CN(C)S(=O)(=O)c1ccc(C(=O)O)cc1 [sulfonamide 2, 4-dimethylsulfamoylbenzoic acid]
association with BCA [1]: should not associate measurably
decrease in the levitation height of functionalized beads [2]: < 0.1 mm
